Assays:
[1] = target: T1, wild type rat Na+,K+-ATPase a1 subunit (Rattus norvegicus, UniProt P06685); test: Na+,K+-ATPase-dependent ATP hydrolysis, natural enzyme; format: biochemical
T1 construct: expressed in transfected cells; crude membrane fraction
Description: (§1) Cells were lysed by treatment with 1 mM Tris-HCl pH 7.5 on ice for 15 min and a crude membrane fraction was prepared as described (Horiuchi, A., Takeyasu, K., Mouradian, M., Jose, P and Felder, R (1993) Mol. Phamiacol. 43, 281-285). The membrane fraction was frozer, in aliquots and stored over-night at -70° C.

[2] = test system: cells transfected with wild type rat Na+,K+-ATPase a1; test: Cell survival in ouabain medium, wild type transfected cells; settings: 500 μM ouabain
[3] = test system: COS-7 cells expressing wild type Na+,K+-ATPase; test: Cell attachment on fibronectin, wild type transfected cells; format: cell-based, monkey; settings: different concentrations of ouabain, 0 to 1.0 mM, FIG. 2
Description: (§2) Cell attachment on fibronectin coted substrates was assayed in microtiterwells (Costar). All wells were preincubated over night at 4° C. with 5 microg/ml concentration of fibronectin. Before adding cells, each well was preincubated with 1% BSA for 30 min in 37° C. and later washed with serum free DMEM. Untransfected COS-7 cells and COS-7 cells expressing wild type or L799C Na+,K+-ATPase were grown in a 3 microCi/ml H3-thymidine containing medium supplemented with 10% fetal calf serum and harvested after approximately 72 hours at 60-80% confluence. Approximately 25,000 cells /wells were seeded in serum free DMEM. Cells were first incubated 15 min with different concentrations of oubain and then allowed to attach to fibronectin (5 μg/ml) coated substrates during 30 min of incubation in 37° C. and later washed with serum free DMEM. Radioactivity was measured in a Wallac Scintillation counter. Results are presented as % remaining radioactivity compared to untreated.

[4] = test system: COS-7 cells expressing L799C Na+,K+-ATPase; test: Cell attachment on fibronectin, L799C transfected cells; format: cell-based, monkey; settings: different concentrations of ouabain, 0 to 1.0 mM, FIG. 2
Description: as §2

[5] = target: T2, Leu799Cys (L799C) rat Na+,K+-ATPase a1 subunit (Rattus norvegicus, UniProt P06685, L800C); test: Na+,K+-ATPase-dependent ATP hydrolysis, mutated enzyme; format: biochemical
T2 construct: expressed in transfected cells; crude membrane fraction
Description: as §1

Na+,K+-ATPase = test: Pilot studies, total Na+,K+-ATPase of transfected cells; format: biochemical; settings: 10^-5 M ouabain, 10 µM
Description: as §1

[6] = test system: cells transfected with mutant rat Na+,K+-ATPase a1; test: Cell survival in ouabain medium, mutant transfected cells
[7] = test system: untransfected COS-7 cells; test: Cell attachment on fibronectin, untransfected cells; format: cell-based, monkey; settings: different concentrations of ouabain, 0 to 1.0 mM, FIG. 2
Description: as §2

[8] = test system: LLC-PK1 cells transfected with mutated (L799C and/or L801C) rat Na+,K+-ATPase alpha1 subunit; test: Survival study, transfected LLC-PK1 cells
[9] = test system: ouabain-sensitive (endogenous) Na+,K+-ATPase; test: Pilot studies, ouabain-sensitive enzyme population; format: biochemical
Description: as §1

[10] = test system: cells with mutated murine and human NKA alpha 1-subunit; settings: read-out: IC50 for ouabain; cells with a mutation in murine and human NKA alpha 1-subunit, Cantley et al 1994; cited from earlier work

## C[C@@H]1O[C@@H](O[C@H]2C[C@@H](O)[C@]3(CO)[C@H]4[C@H](O)C[C@]5(C)[C@@H](C6=CC(=O)OC6)CC[C@]5(O)[C@@H]4CC[C@]3(O)C2)[C@H](O)[C@H](O)[C@H]1O [ouabain]
[1]
  inhibition at 2000 µM: 85 to 90%
[1]; read-out: ouabain concentration that completely inhibited the enzyme population, pilot studies, ouabain-insensitive (transfected) wild type enzyme
  IC100: 5000 µM
[2]
  cell survival: died and died within a few days
[3]
  cell attachment to fibronectin coated substrates: loss of attachment
[4]
  cell attachment to fibronectin coated substrates: no change in attachment
[5]; ouabain concentrations up to 2 mM
  inhibition of the enzyme: no significant inhibition
[5]; read-out: (Na,K)-ATPase activity in percent in comparison with not treated
  activity at 2000 µM: ~100%
Na+,K+-ATPase
  share of Na+,K+-ATPase resistant to ouabain: Approximately 60%
[6]
  ouabain concentration survived by the cells: at least 1×10^-3 M
[6]; longtime treatment with 500 μM ouabain
  cell survival: survived
[7]
  cell attachment to fibronectin coated substrates: loss of attachment
[7]; listed as oubain
  cell attachment to fibronectin coated substrates: decreased dose dependent
[8]; as high as 500×10^-6 M ouabain
  growing and morphological characteristics of the cells: did not seem to alter
[8]; ouabain concentrations up to 500 μM
  cell survival, multiplication and exterior: survive, multiply and keep their natural exterior
[9]
  ouabain concentration that completely inhibited the enzyme population: 10^-5 M
[10]
  IC50: ~5 mM
